Laboratory results: PubChem BioAssay AID1033 (Sanford-Burnham Center for Chemical Genomics, 2008)
The source made the active and inactive calls. No rule for the calls is given here.

The compounds below were run against Chaperone protein DnaK (Escherichia coli (strain K12)) (UniProt P0A6Y8) (assay: E. coli DnaK SBD ligand binding – biophysical, NMR, chaperone (AID 1033)). Details: Purified DnaK SBD.
Chain of Chaperone protein DnaK (Escherichia coli (strain K12)) (P0A6Y8 whole entry, looked up): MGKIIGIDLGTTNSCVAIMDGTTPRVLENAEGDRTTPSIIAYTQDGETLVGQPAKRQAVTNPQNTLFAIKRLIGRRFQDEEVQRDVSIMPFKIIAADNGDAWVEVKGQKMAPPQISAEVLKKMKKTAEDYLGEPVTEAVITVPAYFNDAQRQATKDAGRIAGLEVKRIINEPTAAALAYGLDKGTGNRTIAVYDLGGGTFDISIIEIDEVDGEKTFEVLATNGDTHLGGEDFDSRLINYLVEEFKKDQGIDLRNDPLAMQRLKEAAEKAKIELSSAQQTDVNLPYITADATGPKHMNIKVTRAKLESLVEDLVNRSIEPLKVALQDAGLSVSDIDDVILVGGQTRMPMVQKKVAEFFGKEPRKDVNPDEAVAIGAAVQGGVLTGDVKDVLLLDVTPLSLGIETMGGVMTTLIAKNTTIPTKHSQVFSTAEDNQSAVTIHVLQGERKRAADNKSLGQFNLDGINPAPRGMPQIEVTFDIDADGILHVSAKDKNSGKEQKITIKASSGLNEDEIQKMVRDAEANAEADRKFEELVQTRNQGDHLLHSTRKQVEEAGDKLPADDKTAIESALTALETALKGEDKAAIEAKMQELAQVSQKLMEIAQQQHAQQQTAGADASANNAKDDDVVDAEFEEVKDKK

SMILES	Kd
COc1ccc(NC(=O)C(N)=O)cc1Cl	> 4 mM (inactive)
O=C(CC1NCCNC1=O)Nc1ccccc1 (centres undefined)	> 4 mM (inactive)
O=C(O)CCN1CCOCC1	> 4 mM (inactive)
O=C(O)CC12CC3CC(CC(O)(C3)C1)C2	> 4 mM (inactive)
CN(C)C(=O)C12CCC(C)(C(=O)O1)C2(C)C (centres undefined)	> 4 mM (inactive)
O=C(NCc1cccs1)c1nn2cccnc2c1Cl	> 4 mM (inactive)
CC1(C)CC[C@]2(C)CC[C@]3(C)C(=CCC4[C@@]5(C)CC[C@H](O)C(C)(C)C5CC[C@]43C)C2C1 (some centres undefined)	> 4 mM (inactive)
O=C(O[C@@H]1Cc2c(O)cc(O)cc2O[C@@H]1c1cc(O)c(O)c(O)c1)c1cc(O)c(O)c(O)c1	> 4 mM (inactive)
O=C(NCc1ccccc1Br)c1cccs1	< 0.2 mM
CN1CCC(NC(=O)c2ccccc2[N+](=O)[O-])CC1	> 4 mM (inactive)
O=C(Cc1c(F)cccc1Cl)Nc1cccnc1	> 4 mM (inactive)
CCOC(=O)N1CCN(c2ncnc3c2cnn3C)CC1	> 4 mM (inactive)
COc1cc(OC)c(-c2nc3cnccc3n2C)cc1OC	> 4 mM (inactive)
Nc1ccc2c(c1)CCC2=O	> 4 mM (inactive)
CN1CCN(C2CCSC2)CC1 (centres undefined)	> 4 mM (inactive)
COc1ccc(C2(C)CC(=O)NC2=O)cc1 (centres undefined)	> 4 mM (inactive)
O=c1cnnc(Nc2ccc(O)cc2)[nH]1	> 4 mM (inactive)
Cc1c(C(=O)Nc2ccccc2)sc(N)c1C(N)=O	> 4 mM (inactive)
Cc1oc2nc3c(c(=O)[nH]c(=O)n3C)n2c1C	> 4 mM (inactive)
CC(=O)N1CCc2cc(NC(=O)c3ccc(C)cc3)ccc21	> 4 mM (inactive)
Cc1cccc(C)c1N1C(=O)CCC1=O	> 4 mM (inactive)
Cc1noc(C)c1C(=O)Nc1ccc2c(c1)CCC2	> 4 mM (inactive)
NC(=O)CC1Nc2cccc3cccc(c23)NC1=O (centres undefined)	> 4 mM (inactive)

SMILES	Kd
OCc1ccc2nsnc2c1	> 4 mM (inactive)
Cc1cc(=O)n2[nH]c(COc3ccccc3)nc2n1	> 4 mM (inactive)
Cc1nc2sc3c(c2c(=N)n1N)CC(C)(C)OC3	> 4 mM (inactive)
CC(=O)c1ccc2c(c1)OCCO2	> 4 mM (inactive)
c1ccc(-c2noc(-c3ccc4c(c3)OCO4)n2)nc1	> 4 mM (inactive)
O=C(O)CCCCCCCCCCCCC1C=CCC1 (centres undefined)	> 4 mM (inactive)
CC1CCN(C(=S)c2ccccc2O)CC1	> 4 mM (inactive)
O=C(c1ccccc1-c1ccccc1)N1CCOCC1	> 4 mM (inactive)
CC(=O)c1cccc(NS(=O)(=O)N2CCCCC2)c1	> 4 mM (inactive)
O=C(CN1CCOCC1)Nc1nccs1	> 4 mM (inactive)
Cn1nnc2c(Cl)ncnc21	> 4 mM (inactive)
Cc1nc(-c2ccc(C(=O)N3CCOCC3)cc2)cs1	> 4 mM (inactive)
O=S(=O)(Nc1cccc2cn[nH]c12)c1ccc(F)cc1	> 4 mM (inactive)
NCc1oc(-c2ccccc2)cc1C(=O)O	> 4 mM (inactive)
Nc1c(C(=O)O)sc2ncccc12	> 4 mM (inactive)
NC(=O)CSc1nc2ccccc2c(=O)[nH]1	> 4 mM (inactive)
CNC(=O)c1c(O)c2ccccc2[nH]c1=O	> 4 mM (inactive)
COc1cc2c(cc1OC)C1(O)C(=O)c3ccc(O)c(C(=O)O)c3OC1CO2 (centres undefined)	> 4 mM (inactive)
O=C(O)c1ccc(CN2CCCCC2)o1	> 4 mM (inactive)
CCOc1ccc2nc(NS(C)(=O)=O)sc2c1	> 4 mM (inactive)
CC(=O)Oc1cc(-c2coc3cc(OC(C)=O)c(OC(C)=O)c(OC(C)=O)c3c2=O)cc(OC(C)=O)c1OC(C)=O	> 4 mM (inactive)
CCCCN1C(=O)N(C)C2NC(=O)NC21 (centres undefined)	> 4 mM (inactive)
Cn1nnc2cc(CN)ccc21	> 4 mM (inactive)

SMILES	Kd
CN1CCn2c1nc(N1CCOCC1)nc2=O	> 4 mM (inactive)
COc1ccc2c(C)cc(=O)oc2c1	> 4 mM (inactive)
c1n[nH]cc1-c1cn[nH]c1	> 4 mM (inactive)
COc1ccc(-c2c(O)c3c(OC)c4c(cc3oc2=O)OC(C)(C)CC4)cc1	> 4 mM (inactive)
COC(=O)Cc1cc(=O)n(-c2nc3ccccc3s2)[nH]1	> 4 mM (inactive)
Nc1ccc(Oc2ccccc2)nc1	> 4 mM (inactive)
Cc1cc(NC(=O)c2ccccc2C(=O)O)no1	> 4 mM (inactive)
COc1ccccc1-c1noc(-c2ccco2)n1	> 4 mM (inactive)
CSc1cccc(NC(=O)c2c(Cl)cnn2C)c1	> 4 mM (inactive)
c1cnc(N2CCSCC2)nc1	> 4 mM (inactive)
O=CN1CCN(C(=O)c2ccco2)CC1	> 4 mM (inactive)
COc1nc(-c2ccccc2)ccc1-c1noc(C)n1	> 4 mM (inactive)
O=S(=O)(NCc1ccco1)N1CCOCC1	> 4 mM (inactive)
COc1ccc2c(c1)C(NC(C)=O)C(=O)N2C (centres undefined)	> 4 mM (inactive)
COc1cc(-c2coc3cc(OCc4ccccc4)c(OC)c(O)c3c2=O)cc(O)c1OC	> 4 mM (inactive)
COc1ccc(/C=N/n2cn[nH]c2=S)cc1	> 4 mM (inactive)
Nc1nc(O)c(C2=c3cc(Cl)ccc3=NC2=O)s1	> 4 mM (inactive)
c1ccc(Cc2nnc3sc(-c4ccccn4)nn23)cc1	> 4 mM (inactive)
O=C(c1ccncc1)c1ccc(Br)cc1	> 4 mM (inactive)
O=C(c1ccncc1)N1CCN(C(=O)c2ccco2)CC1	> 4 mM (inactive)
O=C1CCC(=O)N1c1cccc([N+](=O)[O-])c1	> 4 mM (inactive)
CCN(CC)c1nc2n(c(=O)n1)CCO2	> 4 mM (inactive)
c1ccc(-c2nnc(CNCc3ccco3)o2)cc1	> 4 mM (inactive)

SMILES	Kd
Cc1cc(C(=O)Nn2cnnc2)cs1	> 4 mM (inactive)
CC(=O)c1cccc(N=C2NC(=O)CS2)c1	> 4 mM (inactive)
NC(N)=Nc1nc2ccccc2o1	> 4 mM (inactive)
Nc1ccc(-n2cccc2)cc1	> 4 mM (inactive)
O=C(O)Cc1c[nH]c2ccccc12	> 4 mM (inactive)
O=c1c[n+]([O-])c2ccccc2n1OCc1ccccc1	> 4 mM (inactive)
N=C1/C(=C\c2ccccc2)C(=O)N=C2SC=NN12	> 4 mM (inactive)
CCOC(=O)c1ccc(F)cc1F	> 4 mM (inactive)
O=C1C=CC(=O)N1c1ccc(N2CCOCC2)cc1	> 4 mM (inactive)
CNC(=O)C(=O)NCc1ccc(C)cc1	> 4 mM (inactive)
Cc1cc(=O)[nH]c(N2CCN(Cc3ccccc3)CC2)n1	> 4 mM (inactive)
CC(=O)NC1=C(N(C)C)C(=O)c2ccccc2C1=O	> 4 mM (inactive)
CC(=O)c1ccc(CC2SC(N)=NC2=O)cc1 (centres undefined)	> 4 mM (inactive)
O=C1CCNc2cc3ccccc3cc21	> 4 mM (inactive)
O=C(NCc1ccccc1)c1ccc[n+]([O-])c1	> 4 mM (inactive)
CN1CCN(C(=S)c2ccc(N(C)C)cc2)CC1	> 4 mM (inactive)
Nc1cc(F)cc(F)c1	> 4 mM (inactive)
Cc1cc(NC(=O)c2ccc3c(c2)OCCO3)no1	> 4 mM (inactive)
CN1CCC(NC(=O)c2cnccn2)CC1	> 4 mM (inactive)
O=C1COc2cc(O)ccc21	> 4 mM (inactive)
